From patent US10993938B2 (priority 2017, dated 2021)

How the values were obtained:
HIV = test: microbe, parasite or virus in culture; type: cell-based; conditions: Human immunodeficiency virus 1, read-out: HIV (EC50) μM
EV71 = test: Virus inhibition activity assay based on cytopathic effects (neutral red), EV71; type: cell-based; conditions: Enterovirus A, EV71, read-out: EV71 (EC50) μM
CoxB3 = test: Virus inhibition activity assay based on cytopathic effects (neutral red), CoxB3; type: cell-based; conditions: read-out: CoxB3 (EC50) μM
RSV = test: Virus inhibition activity assay based on cytopathic effects (neutral red), RSV; type: cell-based; conditions: human respiratory syncytial virus, read-out: RSV (EC50) μM
[1] = 50% toxic concentration on cell (TC50), neutral red
HSV = test: Virus inhibition activity assay based on cytopathic effects (neutral red), HSV; type: cell-based; conditions: read-out: HSV (EC50) μM
H7N9 = test: microbe, parasite or virus in culture; type: cell-based; conditions: Influenza A virus, H7N9, read-out: H7N9 (EC50) μM
H1N1 = test: microbe, parasite or virus in culture; type: cell-based; conditions: Influenza A virus, H1N1, read-out: H1N1 (EC50) μM

SMILES: COC1C(=O)N(Cc2ccccc2)c2ccc(Cl)cc2C1(O)c1ccccc1 (centres unmarked) [Example 29]
- EC50 (HIV): 0.05 to 5 µM
- EC50 (EV71): 5 to 50 µM
- EC50 (CoxB3): 0.05 to 5 µM
- EC50 (RSV): 0.05 to 5 µM
- CC50 [1]: 50 to 100 µM
- EC50 (HSV): 50 to 120 µM
- EC50 (H7N9): 0.05 to 5 µM
- EC50 (H1N1): 5 to 50 µM
